smiles,measurement,value
CC1(C)[C@H]2Cc3c(N)cccc3[C@]1(C)CCN2CCOCc1c(F)cccc1F.Cl.Cl,melting point,270 °C

# Reference: patent US6387921B1 (dated 2002)
